Results from article PMC4225846, “The Assessment of Cholinesterase from the Liver of Puntius Javanicus as Detection of Metal Ions” (The Scientific World Journal, 2014).
Where two headings read alike, the source gives them in different places.

Test system: T1, P. javanicus ChE (cholinesterase from the liver of Puntius javanicus)
T1 construct: gene BCHE
Assay: Ellman assay (DTNB), […] nm, Michaelis-Menten fit
Type: biochemical, Barbonymus gonionotus
Conditions: 0.1 M sodium phosphate pH 7.0, ambient temperature, 0.1-2.5 mM substrate, 95% confidence interval in brackets

In the case of CC(=O)SCC[N+](C)(C)C [ATC, acetylthiocholine iodide], the Km (read-out: ATC) is reported as 410 µM.

CCCC(=O)SCC[N+](C)(C)C [BTC, S-Butyrylthiocholine iodide] gave a Km (read-out: BTC) of 230 µM.

With CCC(=O)SCC[N+](C)(C)C [PTC, propionylthiocholine iodide] the Km (read-out: PTC) was 830 µM.
